Publication PMC7311409, “Crystal structures of SAMHD1 inhibitor complexes reveal the mechanism of water-mediated dNTP hydrolysis” (Nature Communications, 2020)
Where two headings read alike, the source gives them in different places.

Legend:
SAMHD1 [1] = target: T1, SAMHD1 (Homo sapiens, UniProt Q9Y3Z3); parameters: wt-SAMHD1(1-626); MDCC-PBP phosphate sensor coupled SAMHD1-Ppx1 assay, competitive inhibition of TTP hydrolysis, global fit; conditions: GTP-activated, substrate TTP 0.1-1 mM, pH 8.0, 25 °C; inhibitor
Procedure: To obtain quantitative kinetic parameters for substrate hydrolysis (KM and kcat) and for inhibition by dNMPNPP analogues (Ki) a coupled assay was employed utilising the biosensor MDCC-PBP[90],[91] to measure phosphate release from combined SAMHD1 triphosphohydrolase and S. cerevisiae Ppx1 exopolyphosphatase activity. In a typical experiment, solutions containing wt-SAMHD1(1-626), Ppx1, MDCC-PBP and GTP were incubated for 5 min in assay buffer (20 mM Tris pH 8.0, 150 mM NaCl, 5 mM MgCl2 and 2 mM TCEP) at 25 °C before the reaction was initiated by the addition of nucleotides and nucleotide analogues. The final concentrations were 0.2 µM SAMHD1, 0.01 µM Ppx1, 40 µM MDCC-PBP, 0.2 mM GTP and varying concentrations of dNTP substrates and analogues. The fluorescence intensity was recorded at 430 nm excitation and 465 nm emission over a period of 10–30 min in a Clariostar multiwell plate reader (BMG Labtech). […] Apparent dissociation constants for substrate binding (KM) and catalytic constants (kcat) were then determined by non-linear least-squares fitting using a hyperbolic function in the software package Prism 7 (Graphpad). […] The fitting was performed with a fixed value of KM for GTP-activated TTP hydrolysis, determined previously[35] and only kcat and Ki were allowed to vary. […]
Target sequence in this assay (Q9Y3Z3 whole entry): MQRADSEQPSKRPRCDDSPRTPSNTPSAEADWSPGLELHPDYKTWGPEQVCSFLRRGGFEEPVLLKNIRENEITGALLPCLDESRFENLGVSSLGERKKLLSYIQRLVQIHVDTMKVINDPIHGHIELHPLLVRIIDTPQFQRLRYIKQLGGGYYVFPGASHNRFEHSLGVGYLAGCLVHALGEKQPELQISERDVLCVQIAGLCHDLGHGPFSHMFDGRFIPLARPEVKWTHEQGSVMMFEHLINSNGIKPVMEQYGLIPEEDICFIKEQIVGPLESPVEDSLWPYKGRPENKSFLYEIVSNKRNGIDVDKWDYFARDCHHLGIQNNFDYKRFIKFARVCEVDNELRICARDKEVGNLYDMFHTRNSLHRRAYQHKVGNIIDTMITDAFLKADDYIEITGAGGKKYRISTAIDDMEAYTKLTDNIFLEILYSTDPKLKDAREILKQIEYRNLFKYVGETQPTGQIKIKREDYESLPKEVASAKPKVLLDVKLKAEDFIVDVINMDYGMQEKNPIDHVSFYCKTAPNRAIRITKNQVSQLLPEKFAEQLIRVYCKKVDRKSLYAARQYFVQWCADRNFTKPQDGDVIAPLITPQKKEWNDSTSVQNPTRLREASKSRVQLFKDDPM

SAMHD1 [2] = target: T1, SAMHD1; assay: X-ray co-crystal structure; competitive inhibition in coupled enzyme assay; format: binding; parameters: residues 109-626 (crystal)
Target sequence in this assay (Q9Y3Z3 109-626): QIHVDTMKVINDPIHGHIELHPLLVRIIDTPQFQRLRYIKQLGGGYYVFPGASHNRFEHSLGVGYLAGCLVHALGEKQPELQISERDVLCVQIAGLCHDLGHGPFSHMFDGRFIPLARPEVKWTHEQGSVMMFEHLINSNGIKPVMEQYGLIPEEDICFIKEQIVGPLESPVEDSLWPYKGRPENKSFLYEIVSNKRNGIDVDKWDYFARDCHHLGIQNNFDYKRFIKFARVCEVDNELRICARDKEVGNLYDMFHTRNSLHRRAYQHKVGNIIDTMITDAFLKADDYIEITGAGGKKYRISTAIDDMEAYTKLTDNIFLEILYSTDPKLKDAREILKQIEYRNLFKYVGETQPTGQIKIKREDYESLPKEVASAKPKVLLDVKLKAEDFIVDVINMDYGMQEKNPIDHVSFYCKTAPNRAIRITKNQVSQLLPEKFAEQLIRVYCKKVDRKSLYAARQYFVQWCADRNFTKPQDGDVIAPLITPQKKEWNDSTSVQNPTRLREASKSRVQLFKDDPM

SAMHD1 [3] = target: T2, SAMHD1 (Homo sapiens, UniProt Q9Y3Z3, D137N); assay: X-ray co-crystal structure; activation of dNTP hydrolysis; format: binding
T2 construct: residues 109-626
T2 sequence (Q9Y3Z3 109-626 D137N): as the sequence (Q9Y3Z3 109-626) above, with D29N counted along it

SAMHD1 [4] = target: T1, SAMHD1; assay: MDCC-PBP/Ppx1 coupled triphosphohydrolase assay, competitive inhibition of TTP hydrolysis, global fit; SEC-MALLS tetramerisation; format: biochemical; parameters: wt-SAMHD1(1-626)
Target sequence in this assay (Q9Y3Z3 whole entry): as the sequence (Q9Y3Z3 whole entry) above

SAMHD1 [5] = target: T2, SAMHD1; assay: X-ray co-crystal structure; format: binding

Row | Structure (SMILES) | Ki (SAMHD1 [1]) [nM] | Ki (SAMHD1 [4]) [nM] | other results
1 | Cc1cn([C@H]2C[C@H](O)[C@@H](COP(=O)(O)NP(=O)(O)OP(=O)(O)O)O2)c(=O)[nH]c1=O [TMPNPP] | 370 ± 20 |  | X-ray co-crystal structure (SAMHD1 [2]): (ii) GTP (AL1), dATP (AL2) and TMPNPP (active site)
2 | O=c1[nH]c(=O)c2ncn([C@@H]3O[C@H](COP(=O)(O)OP(=O)(O)OP(=O)(O)O)[C@@H](O)[C@H]3O)c2[nH]1 [XTP] |  |  | X-ray co-crystal structure; activation of dNTP hydrolysis (SAMHD1 [3]): D137N-SAMHD1 is activated by xanthosine-5′-triphosphate (XTP) rather than GTP through AL1-binding
3 | Nc1ncnc2c1ncn2[C@H]1C[C@H](O)[C@@H](COP(=O)(O)NP(=O)(O)OP(=O)(O)O)O1 [dAMPNPP] |  | 780 | 

The next lines start with results.

Row | Ki (SAMHD1 [1]) [nM] | Ki (SAMHD1 [4]) [nM] | Structure (SMILES) | other results
4 | 73 ± 3 |  | Nc1ccn([C@H]2C[C@H](O)[C@@H](COP(=O)(O)NP(=O)(O)OP(=O)(O)O)O2)c(=O)n1 [dCMPNPP] | 
5 |  | 52 | Nc1nc2c(ncn2[C@H]2C[C@H](O)[C@@H](COP(=O)(O)NP(=O)(O)OP(=O)(O)O)O2)c(=O)[nH]1 [dGMPNPP] | X-ray co-crystal structure (SAMHD1 [5]): (ii) XTP (AL1) and dGMPNPP (AL2 and active site)
